Patent US20090105239A1, “2-PYRIDINE DERIVATIVES AS INHIBITORS OF NEUTROPHILE ELASTASE” (priority 2005, published 2009)
pIC50: −log10 of the molar value.

Target: T1, Human Neutrophil Elastase (HNE) (Homo sapiens, UniProt P08246)
T1 construct: Human Neutrophil Elastase (HNE) purified from serum; purchased Calbiochem 324681; host or cells: purified from human serum (so in the source)
T1 sequence (P08246 30-247 limits assumed): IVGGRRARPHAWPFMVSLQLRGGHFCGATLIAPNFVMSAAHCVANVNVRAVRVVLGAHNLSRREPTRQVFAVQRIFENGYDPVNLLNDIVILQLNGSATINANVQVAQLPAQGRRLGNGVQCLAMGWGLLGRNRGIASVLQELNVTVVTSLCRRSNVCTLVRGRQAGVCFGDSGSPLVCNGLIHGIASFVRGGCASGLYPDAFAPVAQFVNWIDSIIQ
Test: Human Neutrophil Elastase Quenched-FRET Assay
Format: biochemical
Conditions: HNE purified from serum 1.7 nM, substrate MeOSuc-AAPV-AMC 100 μM, 30 minutes at room temperature; read-out: Inhibition of Human Neutrophil Elastase IC50
Method: Human Neutrophil Elastase Quenched-FRET Assay
HNE was stored in 50 mM sodium acetate (NaOAc), 200 mM sodium chloride (NaCl), pH 5.5 with added 30% glycerol at −20° C. […] The substrate was stored in dimethyl sulphoxide (DMSO) at −20° C. […] The assay buffer constitution was: 100 mM Tris(hydroxymethyl)aminomethane (TRIS) (pH 7.5) and 500 mM NaCl. The enzyme and the compounds were incubated at room temperature for 15 minutes. Then 30 μl substrate in assay buffer was added. The assay was incubated for 30 minutes at room temperature. […] The assay was then stopped by adding 60 μl stop solution (140 mM acetic acid, 200 mM sodium monochloroacetate, 60 mM sodium acetate, pH 4.3).

Compound	pIC50
Cc1c([S+]([O-])c2ccc(C#N)cc2)cc(C(=O)NCC2(O)CC2)c(=O)n1-c1cccc(C(F)(F)F)c1 (stereo not shown) [Example 27, 5-[(4-Cyanophenyl)sulfinyl]-N-[(1-hydroxycyclopropyl)methyl]-6-methyl-2-oxo-1-[3-(trifluoromethyl)phenyl]-1,2-dihydropyridine-3-carboxamide]	8.05
Cc1c([S+]([O-])c2ccc(C#N)cc2)cc(C(=O)NCC(C)O)c(=O)n1-c1cccc(C(F)(F)F)c1 (stereo not shown) [Example 49, 5-[(4-Cyanophenyl)sulfinyl]-N-(2-hydroxypropyl)-6-methyl-2-oxo-1-[3-(trifluoromethyl)phenyl]-1,2-dihydropyridine-3-carboxamide]	8.40
CC(=O)Nc1ccc(S(=O)(=O)c2cc(C(=O)NCc3ccc(S(C)(=O)=O)cc3)c(=O)n(-c3cccc(C(F)(F)F)c3)c2C)cc1 [Example 59, 5-{[4-(Acetylamino)phenyl]sulfonyl}-6-methyl-N-[4-(methylsulfonyl)benzyl]-2-oxo-1-[3-(trifluoromethyl)phenyl]-1,2-dihydropyridine-3-carboxamide]	7.85
Cc1c(S(=O)(=O)O)cc(C(=O)NCc2ccc(S(C)(=O)=O)cc2)c(=O)n1-c1cccc(C(F)(F)F)c1 [Example 86, 2-Methyl-5-({[4-(methylsulfonyl)benzyl]amino}carbonyl)-6-oxo-1-[3-(trifluoromethyl)phenyl]-1,6-dihydropyridine-3-sulfonic acid]	7.35
